Source: BindingDB's records for doi:10.1021/jm0504961 (Merck Frosst Centre For Therapeutic Research, 2005)

Experiments:
Cathepsin S [1] = target: Cathepsin S (Homo sapiens, UniProt P25774); assay: Enzyme Inhibition Assay and Whole Cell Enzyme Occupancy Assay; conditions: pH 6.5; 22 °C
Protocol: (§1) Prior to the addition of substrate, different concentrations of the inhibitor ranging from 100 uM to 0.2 nM were preincubated for 15 min with enzyme to allow the establishment of the enzyme-inhibitor complex. The proteolytic cleavage of N-acyl aminocoumarins by cathepsins was conducted in 96-well plate format and the plate read using a Spectramax (Molecular Devices) plate reader. The excitation wavelength was 355 nm and the emission wavelength was 460 nm for peptidyl-AMC substrates. The percent inhibition of the reaction was calculated from a control reaction containing only vehicle. IC50 curves were generated by fitting percent inhibition values to a four parameter logistic model (SOFTMAX PRO, Molecular Devices). EC50/IC50 values were obtained from whole cell enzyme occupancy assays for human cathepsins B (in HepG2 cells), L (in HepG2 cells), and S (in Ramos cells).

Procathepsin L = Procathepsin L (Homo sapiens, UniProt P07711); assay: as above; conditions: pH 5.5; 22 °C
Sequence of Procathepsin L (P07711 whole entry): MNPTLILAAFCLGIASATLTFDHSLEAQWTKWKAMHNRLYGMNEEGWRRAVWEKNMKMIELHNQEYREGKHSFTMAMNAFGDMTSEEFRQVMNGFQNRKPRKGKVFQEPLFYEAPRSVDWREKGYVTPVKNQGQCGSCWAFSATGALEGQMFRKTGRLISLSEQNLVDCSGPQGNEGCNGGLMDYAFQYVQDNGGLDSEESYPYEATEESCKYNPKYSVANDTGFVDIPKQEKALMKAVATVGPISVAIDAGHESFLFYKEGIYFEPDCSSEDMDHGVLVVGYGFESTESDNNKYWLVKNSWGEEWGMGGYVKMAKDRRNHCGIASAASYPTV
Protocol: as §1

Cathepsin S [2] = target: Cathepsin S (Mouse, UniProt O70370); assay: Enzyme Inhibition Assay
Sequence of Cathepsin S (Mouse, UniProt O70370) (O70370 whole entry): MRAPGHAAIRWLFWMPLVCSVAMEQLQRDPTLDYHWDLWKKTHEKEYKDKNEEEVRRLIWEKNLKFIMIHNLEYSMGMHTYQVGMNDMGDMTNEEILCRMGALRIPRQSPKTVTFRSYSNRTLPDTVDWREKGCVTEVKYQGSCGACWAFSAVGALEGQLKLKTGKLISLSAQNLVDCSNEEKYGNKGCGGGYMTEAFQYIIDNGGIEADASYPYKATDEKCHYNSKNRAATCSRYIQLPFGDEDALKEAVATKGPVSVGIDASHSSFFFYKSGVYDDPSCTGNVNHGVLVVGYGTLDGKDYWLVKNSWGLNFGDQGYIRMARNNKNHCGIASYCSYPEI
Protocol: (§2) Prior to the addition of substrate, different concentrations of the inhibitor ranging from 100 uM to 0.2 nM were preincubated for 15 min with enzyme to allow the establishment of the enzyme-inhibitor complex. […] The percent inhibition of the reaction was calculated from a control reaction containing only vehicle. IC50 curves were generated by fitting percent inhibition values to a four parameter logistic model (SOFTMAX PRO, Molecular Devices).

Cathepsin K = target: T1, Cathepsin K (Oryctolagus cuniculus, UniProt P43236); assay: Enzyme Inhibition Assay and Bone Resorption Assay; conditions: pH 5.5; 22 °C
T1 sequence (P43236 whole entry): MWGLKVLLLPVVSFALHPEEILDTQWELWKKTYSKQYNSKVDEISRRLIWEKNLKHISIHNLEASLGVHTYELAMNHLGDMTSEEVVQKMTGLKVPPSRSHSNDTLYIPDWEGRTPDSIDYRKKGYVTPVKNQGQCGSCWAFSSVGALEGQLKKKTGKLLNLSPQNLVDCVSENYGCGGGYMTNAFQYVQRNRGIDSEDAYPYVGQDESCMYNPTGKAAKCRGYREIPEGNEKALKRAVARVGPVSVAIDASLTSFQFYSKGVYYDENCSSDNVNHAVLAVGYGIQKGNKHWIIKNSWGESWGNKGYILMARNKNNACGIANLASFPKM
Protocol: as §2, with “Devices). EC50/IC50 values were obtained from functional rabbit bone resorption assay.” for “Devices).”

Sequence of Cathepsin S (Homo sapiens, UniProt P25774) (P25774 whole entry): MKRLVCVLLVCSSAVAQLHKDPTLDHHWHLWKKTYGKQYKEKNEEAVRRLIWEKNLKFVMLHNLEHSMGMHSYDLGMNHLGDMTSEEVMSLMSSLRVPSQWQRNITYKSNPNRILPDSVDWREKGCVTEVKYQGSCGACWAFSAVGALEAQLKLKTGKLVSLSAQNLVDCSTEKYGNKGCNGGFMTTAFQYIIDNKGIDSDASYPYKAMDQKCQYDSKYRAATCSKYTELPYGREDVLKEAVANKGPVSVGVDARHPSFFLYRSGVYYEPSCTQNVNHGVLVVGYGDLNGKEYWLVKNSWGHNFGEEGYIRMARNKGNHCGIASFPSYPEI

SMILES	EC50 (Cathepsin S [1]) [µM]	EC50 (Procathepsin L) [µM]	EC50 (Cathepsin S [2]) [µM]	EC50 (Cathepsin K) [µM]
CCCN1CCN(c2ccc(C(=O)NC3(C(=O)NCC#N)CCCCC3)cc2)CC1 [N-[1-(cyanomethylcarbamoyl)cyclohexyl]-4-(4-propylpiperazin-1-yl)]	2.9	0.048	0.48	–
CC(C)C[C@@H](C(=O)NCC#N)c1cccc(-c2ccc(N3CCNCC3)cc2)c1 [(2R)-N-(cyanomethyl)-4-methyl-2-{3-[4-(piperazin-1-yl)phenyl]phenyl}pentanamide]	1.34	0.32	0.74	0.149
CN1CCN(c2nc(-c3ccc(C(=O)NC4(C(=O)NCC(F)(F)F)CCCCC4)cc3)cs2)CC1 [4-[2-(4-methylpiperazin-1-yl)-1,3-thiazol-4-yl]-N-{1-[(2,2,2-trifluoroethyl)carbamoyl]cyclohexyl}benzamide]	–	–	> 10	–
N#CCNC(=O)C1(NC(=O)c2ccc(-c3csc(N4CCOCC4)n3)cc2)CCCCC1 [N-{1-[(cyanomethyl)carbamoyl]cyclohexyl}-4-[2-(morpholin-4-yl)-1,3-thiazol-4-yl]benzamide]	> 10	> 10	6.7	0.041
CN1CCN(c2nc(-c3ccc(C(=O)NC4(C(=O)NCC#N)CCCCC4)cc3)cs2)CC1 [N-{1-[(cyanomethyl)carbamoyl]cyclohexyl}-4-[2-(4-methylpiperazin-1-yl)-1,3-thiazol-4-yl]benzamide]	0.79	0.34	0.318	0.005
N#CCNC(=O)C1(NC(=O)c2ccc(N3CCOCC3)cc2)CCCCC1 [N-{1-[(cyanomethyl)carbamoyl]cyclohexyl}-4-(morpholin-4-yl)benzamide]	4.8	> 10	8.5	0.58
N#CCNC(=O)[C@H](CC1CCCCC1)NC(=O)c1ccccc1 [(2S)-N-(cyanomethyl)-3-cyclohexyl-2-(phenylformamido)propanamide]	0.01	0.23	0.04	–
